According to publication PMC3478134 (Cancer cell, 2012):
Values belong to the compound of their own block, whether it stands above or below them.

Legend:
ANBL-6.WT cells = assay: Cell viability, ANBL-6.WT; type: cell-based
ANBL-6.BR cells = assay: Cell viability, ANBL-6.BR; type: cell-based
proteasome = assay: Proteasome activity in MM.1S cells; type: cell-based, human; details: for Chymotrypsin-like (CT-L) proteasome activity: MM.1S cells, 3 hr
[1] = test system: MM cells from bortezomib-resistant patients; assay: Viability of MM cells from bortezomib-resistant patients; type: cell-based, human; details: 12.5 nM, 48 hr, in 3 of 6 samples
[2] = Tolerability in tumor-bearing mice; details: twice-weekly schedule
ARP-1 MM tumors = assay: Human p53-null ARP-1 MM xenograft
MM.1S cells [3] = assay: Viability of scr- or p21-siRNA transfected MM.1S cells; type: cell-based, human; details: 48 hr
USP7 [4] = target: T1, USP7 (Homo sapiens, UniProt Q93009); assay: Ubiquitin-linked K48 chain cleavage assay, USP7; type: biochemical; details: Ub7 and K48-linked chains
HDM2 = HDM2 ubiquitylation; type: cell-based; details: U2OS
MM.1S cells [5] = assay: Viability of scr- or HDM2-siRNA transfected MM.1S cells; type: cell-based, human; details: 24 hr
UCHL3 = UCHL3 (Homo sapiens, UniProt P15374); assay: DUB inhibition in cells; type: cell-based; details: Fig S1A
[6] = test system: HCT116 p53 (WT) and HCT116 p53^−/− cells; assay: Viability, HCT116 p53; type: cell-based, human; details: 72 hr
HDM2, HDMX, p53, p21 = assay: Immunoblot of HDM2/HDMX/p53/p21 in MM.1S and RPMI-8226 cells; type: cell-based, human; details: 6.25 and 12.5 μM, 24 hr
USP7 [7] = target: T1, USP7; assay: Ub-PLA2 isopeptidase reporter assay, USP7; type: biochemical; details: for USP7 inhibitory activity (SAR): Fig 1C/1D
USP7 [8] = target: T1, USP7; assay: HA-UbVME active site probe competition, HEK293T cells; type: cell-based; details: lysates from treated HEK293T cells; concentrations as low as
MM cells = assay: Apoptosis; type: cell-based, human; details: Fig S3E
UCHL1 = UCHL1 (Homo sapiens, UniProt P09936); assay: DUB inhibition in cells; type: cell-based; details: Fig S1A
other DUBs = assay: HA-UbVME probe labeling of other DUBs, HEK293T cells; type: cell-based; details: even at 40 μM
[9] = test system: MM.1S cells cultured with BMSCs; assay: MM.1S proliferation with BMSCs, 3H-TdR uptake; type: cell-based, human; details: 72 hr
HCT116 USP7^−/− cells = assay: MTT viability, HCT116 USP7^−/−; type: cell-based, human; details: HCT116 USP7^−/− versus WT
MM.1S cells [10] = assay: Viability of scr- or p53-siRNA transfected MM.1S cells; type: cell-based, human; details: 48 hr
MM.1S MM tumors = assay: Human MM.1S plasmacytoma xenograft
[11] = mouse, in vivo
USP7 [12] = target: T1, USP7; assay: Cellular USP7 activity in MM.1S cells, Ub-EKL assay after immunoprecipitation; type: cell-based; details: 3 hr, concentration-dependent
USP5 = USP5 (Homo sapiens, UniProt P45974); assay: DUB inhibition in cells; type: cell-based; details: Fig S1A
HCT116 (WT) cells = assay: MTT viability, HCT116; type: cell-based, human; details: 24, 48, 72 hr
INA-6 MM tumors = assay: SCID-hu model, INA-6 MM tumors, serum shIL-6R; type: in vivo, mice; details: 10 mg/kg
U2OS cells = assay: IC50 in U2OS cells; type: cell-based
p53^−/− MEFs = assay: Viability, p53^−/− MEFs; type: cell-based, mouse; details: 48 hr
HCT116 p21^−/− cells = details: 48 hr, versus HCT116 (WT)
CCRF-CEM leukemic tumors = assay: CCRF-CEM leukemic xenograft; details: 10 mg/kg twice weekly for 3 weeks
[13] = test system: purified patient MM cells; assay: Purified patient MM cell viability; type: cell-based, human; details: 8 MM patients, 48 hr
p53^−/−/MDM2^−/− MEFs = assay: Viability, p53^−/−/MDM2^−/− MEFs; type: cell-based, mouse; details: 48 hr
[14] = test system: other DUBs or other families of cysteine proteases; assay: Ub-PLA2 / protease panel, selectivity; type: biochemical; details: read-out: EC50, other DUBs or other families of cysteine proteases; Fig 1D
ARP-1 MM cells = assay: Viability, p53-null ARP-1 MM cells; type: cell-based, human; details: p53-null ARP-1, 48 hr
MM cell lines = assay: MM cell line viability; type: cell-based, human
[15] = 10 mg/kg IV twice weekly for 3 weeks

T1 sequence (Q93009 whole entry): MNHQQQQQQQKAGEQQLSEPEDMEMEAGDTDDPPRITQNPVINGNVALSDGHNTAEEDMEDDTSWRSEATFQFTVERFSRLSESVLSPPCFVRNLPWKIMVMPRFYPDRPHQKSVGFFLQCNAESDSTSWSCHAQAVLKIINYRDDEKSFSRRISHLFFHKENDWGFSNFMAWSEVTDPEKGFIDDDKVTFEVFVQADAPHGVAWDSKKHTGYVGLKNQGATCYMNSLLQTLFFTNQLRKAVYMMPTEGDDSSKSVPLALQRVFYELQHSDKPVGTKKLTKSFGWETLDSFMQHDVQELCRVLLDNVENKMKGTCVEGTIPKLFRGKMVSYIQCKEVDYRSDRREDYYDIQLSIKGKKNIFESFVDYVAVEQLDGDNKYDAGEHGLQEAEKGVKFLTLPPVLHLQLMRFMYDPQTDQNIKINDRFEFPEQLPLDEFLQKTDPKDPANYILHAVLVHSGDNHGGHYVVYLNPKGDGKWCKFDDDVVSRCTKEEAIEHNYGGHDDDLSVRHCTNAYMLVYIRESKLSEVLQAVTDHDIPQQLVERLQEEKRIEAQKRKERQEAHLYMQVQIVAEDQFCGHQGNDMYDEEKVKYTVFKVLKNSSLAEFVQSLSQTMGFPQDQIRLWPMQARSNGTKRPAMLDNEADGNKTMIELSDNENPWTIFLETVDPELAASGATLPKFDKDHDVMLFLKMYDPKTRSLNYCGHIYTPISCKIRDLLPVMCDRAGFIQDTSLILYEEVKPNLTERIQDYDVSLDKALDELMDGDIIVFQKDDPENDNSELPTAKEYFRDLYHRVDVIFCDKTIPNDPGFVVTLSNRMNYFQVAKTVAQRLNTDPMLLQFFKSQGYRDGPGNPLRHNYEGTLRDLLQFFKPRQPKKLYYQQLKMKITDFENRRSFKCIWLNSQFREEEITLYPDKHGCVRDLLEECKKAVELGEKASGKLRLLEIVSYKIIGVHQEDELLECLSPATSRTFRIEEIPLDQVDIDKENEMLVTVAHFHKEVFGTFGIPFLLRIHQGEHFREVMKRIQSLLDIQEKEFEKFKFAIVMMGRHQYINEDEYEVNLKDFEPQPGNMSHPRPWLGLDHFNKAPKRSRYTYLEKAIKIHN
Sequence of USP5 (P45974 whole entry): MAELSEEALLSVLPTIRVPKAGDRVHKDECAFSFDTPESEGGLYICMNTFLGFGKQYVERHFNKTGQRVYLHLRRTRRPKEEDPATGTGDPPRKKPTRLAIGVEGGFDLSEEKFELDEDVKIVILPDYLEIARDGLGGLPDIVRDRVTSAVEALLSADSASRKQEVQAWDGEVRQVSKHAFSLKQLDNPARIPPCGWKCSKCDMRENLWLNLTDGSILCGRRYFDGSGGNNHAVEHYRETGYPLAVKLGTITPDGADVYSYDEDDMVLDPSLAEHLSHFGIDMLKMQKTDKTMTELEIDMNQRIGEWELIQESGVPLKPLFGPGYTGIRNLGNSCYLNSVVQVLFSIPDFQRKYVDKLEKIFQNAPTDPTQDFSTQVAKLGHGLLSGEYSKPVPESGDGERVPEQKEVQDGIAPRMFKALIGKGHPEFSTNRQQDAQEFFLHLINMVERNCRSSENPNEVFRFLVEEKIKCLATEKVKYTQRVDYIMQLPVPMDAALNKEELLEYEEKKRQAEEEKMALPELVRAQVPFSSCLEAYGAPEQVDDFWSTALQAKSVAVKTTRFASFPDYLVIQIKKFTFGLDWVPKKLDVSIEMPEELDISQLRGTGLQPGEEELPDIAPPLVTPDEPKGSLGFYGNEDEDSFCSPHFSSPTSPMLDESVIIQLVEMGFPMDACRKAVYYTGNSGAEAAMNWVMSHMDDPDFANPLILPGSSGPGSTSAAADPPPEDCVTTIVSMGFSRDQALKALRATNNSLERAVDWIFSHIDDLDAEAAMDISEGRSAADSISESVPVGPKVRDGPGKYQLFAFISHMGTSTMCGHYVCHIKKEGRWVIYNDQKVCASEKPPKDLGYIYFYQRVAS
Sequence of UCHL3 (P15374 whole entry): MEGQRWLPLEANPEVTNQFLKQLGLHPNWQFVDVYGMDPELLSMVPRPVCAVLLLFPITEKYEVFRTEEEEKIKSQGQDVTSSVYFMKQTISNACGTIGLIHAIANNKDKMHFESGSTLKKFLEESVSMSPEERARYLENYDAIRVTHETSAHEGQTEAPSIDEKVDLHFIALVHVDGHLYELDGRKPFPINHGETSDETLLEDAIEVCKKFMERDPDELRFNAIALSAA
Sequence of UCHL1 (P09936 whole entry): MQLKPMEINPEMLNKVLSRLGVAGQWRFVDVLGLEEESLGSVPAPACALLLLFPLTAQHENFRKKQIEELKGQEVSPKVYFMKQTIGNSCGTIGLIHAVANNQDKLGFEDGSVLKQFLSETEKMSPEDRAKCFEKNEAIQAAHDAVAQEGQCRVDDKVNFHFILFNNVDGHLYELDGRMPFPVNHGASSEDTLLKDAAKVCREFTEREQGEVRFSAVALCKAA

Structure (SMILES): CC(C)C[C@H](NC(=O)[C@H](Cc1ccccc1)NC(=O)c1cnccn1)B(O)O [bortezomib, reference compound]
IC50 (ANBL-6.WT cells; 48 h): 0.00232 µM
IC50 (ANBL-6.BR cells; 48 h): 0.0121 µM
Chymotrypsin-like (CT-L) proteasome activity (proteasome): blocks
Decrease in viability [1]: 10%–50%

Structure (SMILES): CC(=O)c1cc([N+](=O)[O-])c(Sc2cccc(Cl)c2Cl)s1 [P5091]
MTD dose [2]: 20 mg/kg
Survival (ARP-1 MM tumors; [15]): prolongs survival
Tumor growth (ARP-1 MM tumors; [15]): inhibits MM tumor growth
USP7 activity in tumors (ARP-1 MM tumors; compared with control mice, at 3 hr): marked inhibition of USP7 activity
IC50 (ANBL-6.WT cells; ANBL-6.WT, 48 hr): 6.83 µM
Effect of p21 silencing with siRNA on cytotoxicity (MM.1S cells [3]): attenuates P5091-induced cytotoxicity
USP7-mediated cleavage of poly ubiquitin chains (USP7 [4]): inhibited in a dose-dependent manner
HDM2 degradation (HDM2; 15 μM, versus CHX alone): accelerates the degradation of HDM2
HDM2 ubiquitination (HDM2; HA-Ub transfected, 30 μM, 4 hr): markedly increases HDM2 ubiquitination
Percentage of viable cells (MM.1S cells [5]; HDM2-siRNA, P5091 6.25 μM): 73.3%
Percentage of viable cells (MM.1S cells [5]; HDM2-siRNA, P5091 12.5 μM): 19.2%
Percentage of viable cells (MM.1S cells [5]; scr-siRNA, P5091 6.25 μM): 47.2%
Percentage of viable cells (MM.1S cells [5]; scr-siRNA, P5091 12.5 μM): 8.6%
Inhibition of UCHL3 (UCHL3): did not inhibit
Cytotoxicity in HCT116 p53 (WT) versus HCT116 p53^−/− [6]: equipotent cytotoxicity in both cell types
HDM2, HDMX, p53 and p21 protein levels (HDM2, HDMX, p53, p21): decreased HDM2 and HDMX, as well as upregulated p53 and p21 levels
EC50 (USP7 [7]; read-out: EC50, deubiquitylating activity against USP7, Ub-PLA2 reporter assay): 4.2 ± 0.9 µM
Concentration inhibiting Ub-USP7 conjugate formation (HA-UbVME labeling) (USP7 [8]): 5 to 10 µM
Apoptosis (Annexin V/PI) (MM cells): accumulation of cells in early (Ann V^+/PI^−) and late stage (Ann V^+/PI^+) apoptosis
IC50 (ANBL-6.BR cells; ANBL-6.BR, 48 hr): 9.85 µM
IC50 ratio (ANBL-6.BR/ANBL-6.WT) (ANBL-6.BR cells; p < 0.001): significantly less than bortezomib
Inhibition of UCHL1 (UCHL1): did not inhibit
Labeling of other DUBs with Ub-VME (other DUBs): No gross difference
BMSCs-induced proliferation of MM.1S [9]: inhibited BMSCs-induced proliferation
Cytotoxic activity (HCT116 USP7^−/− cells): marked reduction in P5091 cytotoxic activity
Effect of p53 depletion by siRNA on drug-induced decrease in viability (MM.1S cells [10]): does not affect
Survival (MM.1S MM tumors; [15]): prolongs survival
Tumor growth (MM.1S MM tumors; [15]): inhibits MM tumor growth
Proliferation in harvested tumors (MM.1S MM tumors; BrdU and Ki67 staining): decreases proliferation
Apoptotic tumor cells (MM.1S MM tumors; cleaved caspase-3, TUNEL, versus vehicle): increases the number of cleaved-caspase-3-, and TUNEL-positive apoptotic tumor cells
Angiogenesis markers in tumors (MM.1S MM tumors; immunostaining VEGFR2, PECAM1): decreases the number of VEGFR2- and PECAM1-positive cells
USP7 activity in harvested tumors (MM.1S MM tumors; relative to control mice): inhibited USP7 activity
Blood chemistry profile [11]: normal levels of bilirubin, hemoglobin, and creatinine
Weight loss [11]: no significant weight loss
Inhibition of USP7 activity (USP7 [12]): > 50%
Caspase-like (C-L) proteasome activity (proteasome; 25–50 μM): no effect
Trypsin-like (T-L) proteasome activity (proteasome; 25–50 μM): no effect
Chymotrypsin-like (CT-L) proteasome activity (proteasome): no significant inhibition
Inhibition of USP5 (USP5): did not inhibit
Cell viability (HCT116 (WT) cells): decreased the viability
Tumor growth (serum shIL-6R) (INA-6 MM tumors): inhibited tumor growth
IC50 (U2OS cells): 15 µM
IC50 (p53^−/− MEFs): 7.72 µM
Cytotoxicity in HCT116 p21^−/− cells (HCT116 p21^−/− cells): significantly blocked
Survival (CCRF-CEM leukemic tumors): prolongs survival
Tumor growth (CCRF-CEM leukemic tumors): inhibits leukemic tumor growth
Viability of patient MM cells [13]: dose-dependent decrease in the viability
IC50 (p53^−/−/MDM2^−/− MEFs): 20.9 µM
EC50 [14]: > 100 µM
Cell viability (ARP-1 MM cells): decreases the viability

USP7 inhibitory activity (SAR) (USP7 [7]): inactive
USP7 inhibitory activity (SAR) (USP7 [7]; listed as 1): not active
Structure (SMILES): CC(=O)c1cc([N+](=O)[O-])c(Sc2ccccc2)s1 [P22074]
Effect on viability of MM cell lines (MM cell lines): no significant effect
